Reference: patent US10010520B2, “Combined application of isothiocyanate compound and anti-cancer medicine” (JC (WUXI) COMPANY, INC., priority 2013, dated 2018)
Values joined by “and” are separate entries in the source; they are usually repeats but may differ in a detail not shown here. Identical values can stand only once. Counter-ions that a name gives are not always drawn. Like-named read-outs stand apart in the source and are kept apart here.

Legend:
LNCaP cells = experiment: CellTiter-Glo cell viability, drugs alone or in combination, LNCaP cells; type: cell-based, human
Description: Cell culture: Androgen-dependent human prostate cancer cells LNCaP, from Shanghai Medicilon Ltd., were placed in a 37° C., 5% CO2 cell incubator, and were cultured in RPMI1640 culture medium with 10% FBS. Androgen-independent human prostate cancer cells DU145, PC-3, from Shanghai Medicilon Ltd., were placed in a 37° C., 5% CO2 cell incubator, and were cultured in F12 culture medium with 10% FBS.
(§1) isothiocyanates or derivatives thereof and DNA-effecting or influencing anticancer drugs, kinase-inhibiting anticancer drugs or hormonal anticancer drugs for endocrine therapy were administered separately or in combination to cancer cells. Cells were seeded into 384-well plates, and cultured for 24 hours in a CO2 incubator. Drugs were dissolved in DMSO and diluted to 9 concentration-gradients in 96 well plates, and then added to corresponding cells in 384-well plates, in which the concentrations of DMSO in 384 well plates were less than 1%. Triplicate wells were set for each concentration. After administration, the cells were cultured in the CO2 incubator for another 72 hrs, and afterwards, cell viability was tested by using CellTiter-Glo® reagent and luminescence detector. And IC50 values of each administration group were calculated.
(§2) CI value was calculated by the following formula: CI=(Am)50/(As)50+(Bm)50/(Bs)50,
(§3) Triplicate wells were set for each co-administration cell well.
(§4) After administration, cells were cultured in the CO2 incubator for another 72 hrs, and afterwards, cell viability was tested by using CellTiter-Glo® reagent and luminescence detector. Curves were plotted according to concentrations or logarithm concentrations of drug A vs cell inhibition rate in the corresponding cell well, and IC50, i.e. (Am)50 was calculated.
(§5) 9 concentration gradients of drug A were set (A1, A2, A3, A4, A5, A6, A7, A8, A9), and administrated alone to the corresponding cells in the 384 well plate, and triplicate wells were set for each administration concentration. After administration, the cells were cultured in the CO2 incubator for another 72 hrs, and afterwards, cell viability was tested by using CellTiter-Glo® reagent and luminescence detector. Curves were plotted according to concentration or logarithm concentration of drug A vs the cell inhibition rate in the corresponding cell well, and IC50, i.e. (As)50 was calculated.
(§6) After administration, the cells were cultured in the CO2 incubator for another 72 hrs, and afterwards, cell viability was tested by using CellTiter-Glo® reagent and luminescence detector.

[1] = tested on: pancreatic cancer cells PANC-1; experiment: CellTiter-Glo cell viability, drugs alone or in combination, PANC-1 cells; type: cell-based, human
Description: as §1, §2, §3, §4, §5, §6

OVCAR-3 cells = experiment: CellTiter-Glo cell viability, drugs alone or in combination, OVCAR-3 cells
U251 cells = experiment: CellTiter-Glo cell viability, drugs alone or in combination, U251 cells
[2] = tested on: Human breast cancer MDA-MB-231 cells; experiment: CellTiter-Glo cell viability, drugs alone or in combination, MDA-MB-231 cells; details: Homo sapiens, MDA-MB-231, 72 h
[3] = tested on: human kidney cancer cells 786-O; experiment: CellTiter-Glo cell viability, drugs alone or in combination, 786-O cells; details: 786-0, 72 h
Jurkat E6-1 cells = experiment: CellTiter-Glo cell viability, drugs alone or in combination, Jurkat E6-1 cells; type: cell-based, human; details: Homo sapiens
Description: as §1, §2, §3, §4, §5, §6

Saos-2 cells = experiment: CellTiter-Glo cell viability, drugs alone or in combination, Saos-2 cells; type: cell-based, human; details: Homo sapiens, SAOS-2, 72 h
Description: as §1, §2, §3, §4, §5, §6

[4] = tested on: human leukemia HL-60 cells; experiment: CellTiter-Glo cell viability, drugs alone or in combination, HL-60 cells; type: cell-based
Description: as §1, §2, §3, §4, §5, §6

HeLa cells = experiment: CellTiter-Glo cell viability, drugs alone or in combination, HeLa cells; type: cell-based, human; details: 72 hrs, read-out: (Bs)50, IC50 of drug B when used alone
Description: as §1, §2, §3, §4, §5, §6

[5] = Homo sapiens, LNCaP, 72 h, LNCaP cells, 72 hrs, read-out: (As)50, IC50 of drug A when used alone
[6] = Homo sapiens, PANC-1 cells, 72 hrs, read-out: (As)50, IC50 of drug A when used alone
[7] = Homo sapiens, OVCAR-3, 72 h, read-out: (As)50, IC50 of drug A when used alone
[8] = PANC-1 cells, 72 hrs, read-out: (As)50, IC50 of drug A when used alone
[9] = Homo sapiens, U-251, 72 h, read-out: (Bs)50, IC50 of drug B when used alone, U251 cells, 72 hrs
[10] = read-out: (Bs)50, IC50 of drug B when used alone, 786-O cells, 72 hrs
[11] = LNCaP cells, 72 hrs, read-out: (As)50, IC50 of drug A when used alone
[12] = read-out: (As)50, IC50 of drug A when used alone
[13] = 72 hrs, read-out: (Bs)50, IC50 of drug B when used alone
[14] = Homo sapiens, HL-60, 72 h, read-out: (Bs)50, IC50 of drug B when used alone

S=C=NCCCc1ccccc1 [3-Phenylpropyl isothiocyanate, 3-phenyl propyl isothiocyanate]
IC50 (LNCaP cells; [5]): 24.5 µM

S=C=NCCCCc1ccccc1 [4-Phenbutyl isothiocyanate, 4-phenylbutyl isothiocyanate]
IC50 [1, 6]: 26.9 µM
IC50 (LNCaP cells; [5]): 17.5 µM

S=C=NCc1ccc(Cl)cc1 [4-chloro-benzyl isothiocyanate]
IC50 ([1]; Homo sapiens, PANC-1, 72 h, read-out: (As)50, IC50 of drug A when used alone): 34 µM
IC50 (LNCaP cells; Homo sapiens, LNCaP, 72 h, read-out: (As)50, IC50 of drug A when used alone): 17.3 µM
IC50 (OVCAR-3 cells; [7]): 18.2 µM

COc1ccc(CN=C=S)cc1 [4-methoxy-benzyl isothiocyanate]
IC50 [1, 6]: 11.3 µM

S=C=NCCCCCCc1ccccc1 [6-Phenhexyl isothiocyanate, 6-phenyl-hexyl isothiocyanate]
IC50 [1, 6]: 30.9 µM
IC50 (LNCaP cells; [5]): 18.8 µM

CC(N=C=S)c1ccccc1 [L-ethyl phenyl isothiocyanate]
IC50 [1, 8]: 24 µM
IC50 (OVCAR-3 cells; read-out: (As)50, IC50 of drug A when used alone, OVCAR-3 cells, 72 hrs): 43.6 µM

O=NN(CCCl)C(=O)NC1CCCCC1 [Lomustine]
IC50 (U251 cells; [9]): 65.4 µM
IC50 (U251 cells; read-out: (Bs)50, IC50 of drug B when used alone, U251 cells, 72 hrs): 115 µM

CC(=O)O[C@H]1C(=O)[C@@]2(C)[C@H]([C@H](OC(=O)c3ccccc3)[C@]3(O)C[C@H](OC(=O)[C@H](O)[C@@H](NC(=O)c4ccccc4)c4ccccc4)C(C)=C1C3(C)C)[C@]1(OC(C)=O)CO[C@@H]1C[C@@H]2O [Paclitaxel, paclitaxel, reference compound]
IC50 ([2]; read-out: (Bs)50, IC50 of drug B when used alone, MDA-MB-231 cells, 72 hrs): 0.0199 µM

Cc1ccc(Nc2nccc(N(C)c3ccc4c(C)n(C)nc4c3)n2)cc1S(N)(=O)=O [Pazopanib, pazopanib, reference compound]
IC50 [3, 10]: 199 µM

S=C=Nc1ccccc1 [Phenyl isothiocyanate, phenyl isothiocyanate]
IC50 [1, 6]: 77.2 µM
IC50 (LNCaP cells; [5]): 43.6 µM

S=C=NCCCc1ccccc1 [Phenylpropyl isothiocyanate, phenylpropyl isothiocyanate]
IC50 [1, 6]: 35.1 µM
IC50 (LNCaP cells; [11]): 22.9 µM

C#CCC(Cc1cnc2nc(N)nc(N)c2n1)c1ccc(C(=O)N[C@@H](CCC(=O)O)C(=O)O)cc1 (stereo partly shown) [Pralatrexate, reference compound]
IC50 (Jurkat E6-1 cells; Jurkat E6.1, 72 h, Jurkat E6-1 cells, 72 hrs, read-out: (Bs)50, IC50 of drug B when used alone): 0.0017 µM

C/C=C1\NC(=O)[C@H]2CSSCC/C=C/[C@H](CC(=O)N[C@H](C(C)C)C(=O)N2)OC(=O)[C@H](C(C)C)NC1=O [Romidepsin, romidepsin, reference compound]
IC50 (Jurkat E6-1 cells; Jurkat E6-1 cells, 72 hrs, read-out: (Bs)50, IC50 of drug B when used alone): 0.00201 µM

CNC(=O)c1cc(Oc2ccc(NC(=O)Nc3ccc(Cl)c(C(F)(F)F)c3)cc2)ccn1 [Sorafenib, sorafenib, reference compound]
IC50 [3, 10]: 6.99 µM

C=CCN=C=S [allyl isothiocyanate]
IC50 [1, 6]: 116 µM

Cn1c(CCCC(=O)O)nc2cc(N(CCCl)CCCl)ccc21 [bendamustine, Bendamustine, reference compound]
IC50 (Jurkat E6-1 cells; Jurkat E6.1, 72 h, read-out: (Bs)50, IC50 of drug B when used alone): > 100 µM

CC(C)C[C@H](NC(=O)[C@H](Cc1ccccc1)NC(=O)c1cnccn1)B(O)O [bortezomib, reference compound]
IC50 (Saos-2 cells; Saos-2 cells, 72 hrs, read-out: (Bs)50, IC50 of drug B when used alone): 0.807 µM

N.N.O=C([O-])C1(C(=O)[O-])CCC1.[Pt+2] [carboplatin, Carboplatin]
IC50 (OVCAR-3 cells; read-out: (Bs)50, IC50 of drug B when used alone, OVCAR-3 cells, 72 hrs): 58.9 µM and 38.7 µM

S=C=NC1CCCCC1 [cyclohexyl isothiocyanate]
IC50 (Jurkat E6-1 cells; Jurkat E6-1 cells, 72 hrs, read-out: (As)50, IC50 of drug A when used alone): 42.1 µM
IC50 (Saos-2 cells; [12]): 66 µM
IC50 ([4]; Homo sapiens, HL-60, 72 h, read-out: (As)50, IC50 of drug A when used alone): 52.7 µM
IC50 [1, 6]: 193 µM
IC50 (LNCaP cells; [5]): 54 µM
IC50 (U251 cells; Homo sapiens, U-251, 72 h, read-out: (As)50, IC50 of drug A when used alone): 71.1 µM
IC50 [3, 12]: 107 µM
IC50 (OVCAR-3 cells; [7]): 36.5 µM
IC50 [2, 12]: 37.5 µM

O=P1(N(CCCl)CCCl)NCCCO1 (stereo not shown) [cyclophosphamide, Cyclophosphamide]
IC50 (OVCAR-3 cells; Homo sapiens, OVCAR-3, 72 h, read-out: (Bs)50, IC50 of drug B when used alone): > 100 µM

COc1cccc2c1C(=O)c1c(O)c3c(c(O)c1C2=O)C[C@@](O)(C(C)=O)C[C@@H]3O[C@H]1C[C@H](N)[C@H](O)[C@H](C)O1 [daunorubicin, Daunorubicin]
IC50 [4, 13]: 0.236 µM

C#Cc1cccc(Nc2ncnc3cc(OCCOC)c(OCCOC)cc23)c1 [erlotinib, reference compound]
IC50 ([1]; Homo sapiens, PANC-1, 72 h, PANC-1 cells, 72 hrs, read-out: (Bs)50, IC50 of drug B when used alone): > 100 µM

CO[C@H]1C[C@@H]2CC[C@@H](C)[C@@](O)(O2)C(=O)C(=O)N2CCCC[C@H]2C(=O)O[C@H]([C@H](C)C[C@@H]2CC[C@@H](OCCO)[C@H](OC)C2)CC(=O)[C@H](C)/C=C(\C)[C@@H](O)[C@@H](OC)C(=O)[C@H](C)C[C@H](C)/C=C/C=C/C=C/1C [everolimus]
IC50 (U251 cells; [9]): 23.7 µM

Nc1nc(F)nc2c1ncn2[C@@H]1O[C@H](CO)[C@@H](O)[C@@H]1O [fludarabine, Fludarabine]
IC50 [4, 14]: 1.57 µM

CCNC(=O)[C@@H]1CCCN1C(=O)[C@H](CCCNC(=N)N)NC(=O)[C@H](CC(C)C)NC(=O)[C@@H](CC(C)C)NC(=O)[C@H](Cc1ccc(O)cc1)NC(=O)[C@H](CO)NC(=O)[C@H](Cc1c[nH]c2ccccc12)NC(=O)[C@H](Cc1c[nH]cn1)NC(=O)[C@@H]1CCC(=O)N1 [leuprorelin, reference compound]
IC50 (LNCaP cells; LNCaP cells, 72 hrs, read-out: (Bs)50, IC50 of drug B when used alone): 323 µM

Cc1cn(-c2cc(NC(=O)c3ccc(C)c(Nc4nccc(-c5cccnc5)n4)c3)cc(C(F)(F)F)c2)cn1 [nilotinib]
IC50 [4, 14]: 3.9 µM

CC(=O)N[C@@H](CSC(=S)NCCc1ccccc1)C(=O)O [phenethyl isothiocyanate-N-acetylcysteine adduct]
IC50 [1, 8]: 28.6 µM
IC50 (LNCaP cells; [11]): 16.4 µM

C[S+]([O-])CCCCN=C=S (stereo not shown) [sulforaphane, 1-isothiocyanate-4-methanesulfonyl butane]
IC50 ([1]; Homo sapiens, PANC-1, 72 h, PANC-1 cells, 72 hrs, read-out: (As)50, IC50 of drug A when used alone): 14.3 µM
IC50 (LNCaP cells; [5]): 15.3 µM

CC[C@@]1(O)C(=O)OCc2c1cc1n(c2=O)Cc2cc3c(CN(C)C)c(O)ccc3nc2-1 [topotecan, Topotecan]
IC50 (OVCAR-3 cells; Homo sapiens, OVCAR-3, 72 h, read-out: (Bs)50, IC50 of drug B when used alone, OVCAR-3 cells, 72 hrs): 0.0774 µM

S=C=NC(c1ccccc1)(c1ccccc1)c1ccccc1 [trityl isothiocyanate]
IC50 [1, 6]: > 50 µM
IC50 (LNCaP cells; [5]): 238 µM

CC[C@]1(O)C[C@H]2CN(CCc3c([nH]c4ccccc34)[C@@](C(=O)OC)(c3cc4c(cc3OC)N(C=O)[C@H]3[C@@](O)(C(=O)OC)[C@H](OC(C)=O)[C@]5(CC)C=CCN6CC[C@]43[C@@H]65)C2)C1 [vincristine sulfate]
IC50 [4, 13]: 0.0126 µM

Bleomycin [reference compound]
IC50 (HeLa cells): 24.5 µM

arsenic trioxide
IC50 [4, 13]: 2.75 µM
